We go through 10 compounds from patent US20090036450A1, “PYRAZOLE COMPOUNDS AND USE THEREOF” (JAPAN TOBACCO, INC., priority 2006, published 2009).

Where a name gives a salt, the structure may show the parent alone.

This assay addresses T1, human liver glycogen phosphorylase (Homo sapiens, UniProt P06737).
T1 construct: made in house; host or cells: Sf9 insect cells (suspension of disrupted cells, diluted in BES buffer, not purified)
T1 sequence (P06737 1-847): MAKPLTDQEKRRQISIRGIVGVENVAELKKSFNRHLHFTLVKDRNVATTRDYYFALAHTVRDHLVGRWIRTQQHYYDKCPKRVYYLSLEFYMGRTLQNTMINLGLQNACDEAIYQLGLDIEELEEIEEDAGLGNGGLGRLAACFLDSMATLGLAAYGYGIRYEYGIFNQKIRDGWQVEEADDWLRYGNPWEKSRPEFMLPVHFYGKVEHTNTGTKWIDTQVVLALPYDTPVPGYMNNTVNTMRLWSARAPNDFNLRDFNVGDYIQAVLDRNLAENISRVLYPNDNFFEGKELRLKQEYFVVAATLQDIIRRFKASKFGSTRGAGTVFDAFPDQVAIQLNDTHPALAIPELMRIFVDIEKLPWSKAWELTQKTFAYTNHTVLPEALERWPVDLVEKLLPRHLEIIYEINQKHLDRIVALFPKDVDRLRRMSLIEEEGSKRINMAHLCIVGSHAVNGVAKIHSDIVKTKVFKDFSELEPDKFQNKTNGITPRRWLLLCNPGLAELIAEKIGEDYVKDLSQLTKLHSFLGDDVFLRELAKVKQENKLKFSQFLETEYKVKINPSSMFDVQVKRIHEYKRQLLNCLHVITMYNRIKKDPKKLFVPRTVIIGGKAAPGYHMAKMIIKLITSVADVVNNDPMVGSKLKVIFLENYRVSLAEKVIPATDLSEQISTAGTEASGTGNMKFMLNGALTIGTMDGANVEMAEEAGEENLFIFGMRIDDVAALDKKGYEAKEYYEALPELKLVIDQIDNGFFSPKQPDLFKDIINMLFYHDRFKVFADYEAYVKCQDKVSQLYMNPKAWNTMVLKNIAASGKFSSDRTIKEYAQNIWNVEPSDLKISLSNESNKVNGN
Description: Liver glycogen phosphorylase activity, forward reaction system (NADPH detection at 340 nm). As to conditions: enzyme inhibitory activity against recombinant human liver glycogen phosphorylase (Sf9 cell lysate), room temperature, 75 minutes. In kind it is biochemical. Summed up: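 Recombinant human liver glycogen phosphorylase from Sf9 lysate, run in forward direction with glycogen and phosphate substrate plus glucose, coupled via phosphoglucomutase/G6PDH to NADPH formation. BES buffer pH 6.8, room temperature, 75 min; A340 change minus blank gives activity. IC50 from percent inhibition vs DMSO control.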

As a reminder, the IC50 is the concentration at which inhibition is half-maximal. On to `Cc1nc(C(=O)OCc2ccccc2)oc1CNC(=O)c1cc(NC(=O)c2cc(F)c(F)cc2Cl)[nH]n1` [Example 3-17, 5-(2-chloro-4,5-difluoro-benzoylamino)-1H-pyrazole-3-carboxylic acid (2-benzyloxycarbonyl-4-methyl-oxazol-5-ylmethyl)-amide], for which the IC50 was under 100 nM. `Cc1onc(-c2ccc(S(C)(=O)=O)cc2)c1CNC(=O)c1cc(NC(=O)c2cc(F)c(F)cc2Cl)[nH]n1` [Example 1-16, 5-(2-chloro-4,5-difluoro-benzoylamino)-1H-pyrazole-3-carboxylic acid [3-(4-methanesulfonyl-phenyl)-5-methylisoxazol-4-ylmethyl]-amide]: the half-inhibitory concentration (IC50) is under 100 nM. Regarding `CCc1nc(Cc2nc(C)c(CNC(=O)c3cc(NC(=O)c4cc(F)c(F)cc4Cl)[nH]n3)o2)n[nH]1` [Example 1-86, 5-(2-chloro-4,5-difluoro-benzoylamino)-1H-pyrazole-3-carboxylic acid [2-(5-ethyl-1H-[1,2,4]thiazol-3-ylmethyl)-4-methyl-oxazol-5-ylmethyl]-amide hydrochloride], the IC50 was under 100 nM. The same measure for `Cc1nc(C(=O)N(C)Cc2ccccc2)oc1CNC(=O)c1cc(NC(=O)c2cc(F)c(F)cc2Cl)[nH]n1` [Example 3-25, 5-({[5-(2-chloro-4,5-difluoro-benzoylamino)-1H-pyrazole-3-carbonyl]-amino}-methyl)-4-methyl-oxazole-2-carboxylic acid benzyl-methyl-amide]: under 100 nM; for `Cc1nc(-c2ccc(C(F)(F)F)cc2)sc1CNC(=O)c1cc(NC(=O)c2cc(F)c(F)cc2Cl)[nH]n1` [Example 1-6, 5-(2-chloro-4,5-difluoro-benzoylamino)-1H-pyrazole-3-carboxylic acid [4-methyl-2-(4-trifluoromethyl-phenyl)-thiazol-5-ylmethyl]-amide]: 100 to 300 nM. In the case of `O=C(NCc1n[nH]c(-c2ccc(Cl)cc2)n1)c1cc(NC(=O)c2cc(F)c(F)cc2Cl)[nH]n1` [Example 1-87, 5-(2-chloro-4,5-difluoro-benzoylamino)-1H-pyrazole-3-carboxylic acid [5-(4-chloro-phenyl)-1H-[1,2,4]triazol-3-ylmethyl]-amide], the IC50 is under 100 nM. As for `CCOC(=O)c1oc(CNC(=O)c2cc(NC(=O)c3cc(F)c(F)cc3Cl)[nH]n2)nc1C` [Example 1-51, 5-(2-chloro-4,5-difluoro-benzoylamino)-1H-pyrazole-3-carboxylic acid (5-ethoxycarbonyl-4-methyl-oxazol-2-ylmethyl)-amide], the IC50 was under 100 nM. As to `Cc1nc(C2CCCCC2)c(CNC(=O)c2cc(NC(=O)c3cc(F)c(F)cc3Cl)[nH]n2)o1` [Example 1-38, 5-(2-chloro-4,5-difluoro-benzoylamino)-1H-pyrazole-3-carboxylic acid (4-cyclohexyl-2-methyl-oxazol-5-ylmethyl)-amide], the IC50 is under 100 nM. `Cc1nc(-c2cc3ccccc3s2)sc1CNC(=O)c1cc(NC(=O)c2cc(F)c(F)cc2Cl)[nH]n1` [Example 1-9, 5-(2-chloro-4,5-difluoro-benzoylamino)-1H-pyrazole-3-carboxylic acid (2-benzo[b]thiophen-2-yl-4-methyl-thiazol-5-ylmethyl)-amide]: the IC50 is under 100 nM. The figure for `CCOC(=O)c1cc(CNC(=O)c2cc(NC(=O)c3cc(F)c(F)cc3Cl)[nH]n2)on1` [Example 1-23, 5-(2-chloro-4,5-difluoro-benzoylamino)-1H-pyrazole-3-carboxylic acid (3-ethoxycarbonylisoxazol-5-ylmethyl)-amide] is under 100 nM.
